Results taken from ChEMBL document CHEMBL1136310, “Pyrazino[1,2-a]indole-1,4-diones, simple analogues of gliotoxin, as selective inhibitors of geranylgeranyltransferase I” (Bioorg Med Chem Lett, 2003).

Tests used:
[1] = target: Protein farnesyltransferase (Homo sapiens, UniProt P49354+P49356); assay: Inhibition of [3H]FPP incorporation into recombinant human Ha-Ras-CVLS by farnesyl transferase; assay type: protein-complex assay
[2] = target: Geranylgeranyl transferase type I (Homo sapiens, UniProt P49354+P53609); assay: Inhibition of [3H]-GGPP incorporation into recombinant human Ha-Ras-CVLL by Geranylgeranyl transferase type I; assay type: protein-complex assay

COc1cccc2c1cc1n2C(=O)C(SSCc2ccccc2)N(C)C1=O (stereo unspecified)
IC50 [1]: > 100 µM
IC50 [2]: > 100 µM

COc1cccc2c1cc1n2C(=O)C(SC(C)=O)N(C)C1=O (stereo unspecified)
IC50 [1]: 748 µM
IC50 [2]: 90.3 µM

CN1C(=O)c2cc3ccccc3n2C(=O)C1SSCc1ccccc1 (stereo unspecified)
IC50 [1]: > 100 µM
IC50 [2]: > 100 µM

COc1cccc2c1cc1n2C(=O)CN(C)C1=O
IC50 [1]: > 100 µM
IC50 [2]: > 100 µM

CN1CC(=O)N2c3ccccc3CC2C1=O (stereo unspecified)
IC50 [1]: > 100 µM
IC50 [2]: > 100 µM

COc1cccc2c1CC1C(=O)N(C)CC(=O)N21 (stereo unspecified)
IC50 [1]: > 100 µM
IC50 [2]: > 100 µM

CN1CC(=O)n2c(cc3ccccc32)C1=O
IC50 [1]: > 100 µM
IC50 [2]: > 100 µM

CN1C(=O)[C@]23CC4=CC=C[C@H](O)[C@H]4N2C(=O)[C@@]1(CO)SS3 [GLIOTOXIN]
IC50 [1]: 80 µM
IC50 [2]: 17 µM
